This passage reports remaining activity and inhibition results from article PMC8500670, “A selective WDR5 degrader inhibits acute myeloid leukemia in patient-derived mouse models” (Science translational medicine, 2021).

Read-outs that look alike come from different tables or passages of the source. Where only a bound is given, the exact number is not on record here.

Common to all, as to experiment: biochemical
The target in assay [1] is T1, NSD3 (Homo sapiens, UniProt Q9BZ95).
T1 sequence (Q9BZ95 1-1437): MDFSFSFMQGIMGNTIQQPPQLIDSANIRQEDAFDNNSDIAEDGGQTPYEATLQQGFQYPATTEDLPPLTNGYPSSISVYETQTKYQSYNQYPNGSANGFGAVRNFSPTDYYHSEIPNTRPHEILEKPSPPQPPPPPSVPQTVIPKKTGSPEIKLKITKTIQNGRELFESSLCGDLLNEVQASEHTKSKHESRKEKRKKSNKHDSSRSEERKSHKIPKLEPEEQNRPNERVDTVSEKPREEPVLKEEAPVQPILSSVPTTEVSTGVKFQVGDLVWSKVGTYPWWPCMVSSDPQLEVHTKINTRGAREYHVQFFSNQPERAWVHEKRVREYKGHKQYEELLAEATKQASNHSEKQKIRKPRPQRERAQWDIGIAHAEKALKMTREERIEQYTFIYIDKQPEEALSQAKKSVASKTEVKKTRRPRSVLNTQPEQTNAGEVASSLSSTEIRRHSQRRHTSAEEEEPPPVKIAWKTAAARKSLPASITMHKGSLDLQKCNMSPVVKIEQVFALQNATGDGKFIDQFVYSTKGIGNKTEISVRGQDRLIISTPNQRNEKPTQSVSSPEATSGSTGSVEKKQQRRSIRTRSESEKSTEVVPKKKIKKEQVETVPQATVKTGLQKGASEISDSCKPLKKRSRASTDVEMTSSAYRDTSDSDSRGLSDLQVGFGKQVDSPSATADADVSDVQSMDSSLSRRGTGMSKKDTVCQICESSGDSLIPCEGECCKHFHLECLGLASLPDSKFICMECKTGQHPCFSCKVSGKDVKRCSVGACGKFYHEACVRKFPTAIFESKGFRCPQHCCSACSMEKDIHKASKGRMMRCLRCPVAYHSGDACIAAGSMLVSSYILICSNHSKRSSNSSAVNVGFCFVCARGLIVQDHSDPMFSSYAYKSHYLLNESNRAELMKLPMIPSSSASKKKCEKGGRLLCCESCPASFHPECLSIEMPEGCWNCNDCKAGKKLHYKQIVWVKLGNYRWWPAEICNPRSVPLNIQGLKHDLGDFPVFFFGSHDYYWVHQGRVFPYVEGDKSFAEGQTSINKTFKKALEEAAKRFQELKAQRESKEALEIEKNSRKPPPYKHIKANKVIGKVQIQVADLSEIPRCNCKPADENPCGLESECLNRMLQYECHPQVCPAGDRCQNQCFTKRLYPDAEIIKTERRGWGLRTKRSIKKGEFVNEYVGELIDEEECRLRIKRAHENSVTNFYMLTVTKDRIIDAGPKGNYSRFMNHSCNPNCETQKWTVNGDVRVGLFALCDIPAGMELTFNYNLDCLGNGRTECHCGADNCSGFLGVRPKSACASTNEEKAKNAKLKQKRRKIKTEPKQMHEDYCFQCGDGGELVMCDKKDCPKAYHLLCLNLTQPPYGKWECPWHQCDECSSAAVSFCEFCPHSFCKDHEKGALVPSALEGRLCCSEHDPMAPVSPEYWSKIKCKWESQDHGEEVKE
More on the design: protein methyltransferase selectivity panel, enzyme activity relative to DMSO controls, single concentration in duplicate. The following applies: Substrate:=Nucleosomes. As for the experimental part: (§1) We next assessed selectivity of MS67 against 22 protein methyltransferases (table S2) and a broad panel of common drug targets including 45 kinases (table S3) and 44 G protein–coupled receptors (GPCR), ion channels, and transporters (table S4). […] We subsequently determined that MS67 had moderate binding affinity (Ki = 1.0 ± 0.8 μM) to Sigma 2 receptor (fig. S10).

In assay [2] the target is T1, NSD3. More on the design: protein methyltransferase inhibition panel, single concentration, duplicate. As for the experimental part:
as §1

The target of assay [3] is PRMT1 (Homo sapiens, UniProt Q99873). Further details: protein methyltransferase inhibition panel, single concentration, duplicate. As for the experimental part:
as §1

In assay [4] the target is PRMT6 (Homo sapiens, UniProt Q96LA8). More on the design: protein methyltransferase inhibition panel, single concentration, duplicate. As for the experimental part: as §1
Assay [5] addresses T2, SET7/9 (Homo sapiens, UniProt Q8WTS6).
T2 construct: gene SETD7
T2 sequence (Q8WTS6 1-366): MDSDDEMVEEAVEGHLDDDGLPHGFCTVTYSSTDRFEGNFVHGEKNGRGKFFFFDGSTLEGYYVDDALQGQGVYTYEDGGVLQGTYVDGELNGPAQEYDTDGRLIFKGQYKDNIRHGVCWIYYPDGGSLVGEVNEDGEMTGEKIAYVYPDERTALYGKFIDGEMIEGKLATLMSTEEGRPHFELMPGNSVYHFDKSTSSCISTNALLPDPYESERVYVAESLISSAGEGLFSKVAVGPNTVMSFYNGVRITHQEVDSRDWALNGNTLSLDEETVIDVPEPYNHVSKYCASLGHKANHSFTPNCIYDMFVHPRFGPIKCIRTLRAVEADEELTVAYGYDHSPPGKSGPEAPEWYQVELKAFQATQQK
Further details: protein methyltransferase inhibition panel, single concentration, duplicate. As for the experimental part:
as §1

In assay [6] the target is T3, SUV39H1 (Homo sapiens, UniProt O43463).
T3 sequence (O43463 1-412): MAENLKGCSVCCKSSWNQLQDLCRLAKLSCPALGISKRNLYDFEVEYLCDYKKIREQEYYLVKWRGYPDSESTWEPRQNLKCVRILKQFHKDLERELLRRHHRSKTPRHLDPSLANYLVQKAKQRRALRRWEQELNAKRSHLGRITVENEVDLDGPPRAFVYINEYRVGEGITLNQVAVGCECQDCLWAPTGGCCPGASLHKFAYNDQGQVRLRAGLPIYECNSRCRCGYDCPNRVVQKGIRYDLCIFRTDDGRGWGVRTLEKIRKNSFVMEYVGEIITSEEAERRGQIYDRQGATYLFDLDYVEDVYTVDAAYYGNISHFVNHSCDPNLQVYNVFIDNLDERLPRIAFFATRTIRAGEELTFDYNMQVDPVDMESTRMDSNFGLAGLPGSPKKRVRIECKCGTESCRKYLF
More on the design: protein methyltransferase inhibition panel, single concentration, duplicate. As for the experimental part: as §1

PRMT1, sequence (Q99873 whole entry): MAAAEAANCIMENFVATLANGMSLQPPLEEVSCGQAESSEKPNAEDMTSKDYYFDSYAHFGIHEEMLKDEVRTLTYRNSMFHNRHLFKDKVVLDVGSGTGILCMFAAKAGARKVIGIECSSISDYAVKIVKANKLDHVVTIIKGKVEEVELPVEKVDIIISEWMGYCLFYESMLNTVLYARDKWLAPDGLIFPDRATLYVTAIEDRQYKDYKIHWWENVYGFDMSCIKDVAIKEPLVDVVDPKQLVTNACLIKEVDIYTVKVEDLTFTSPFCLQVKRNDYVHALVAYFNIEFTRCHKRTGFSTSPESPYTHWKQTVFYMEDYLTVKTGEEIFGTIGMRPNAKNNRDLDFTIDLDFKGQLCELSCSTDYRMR
PRMT6, sequence (Q96LA8 whole entry): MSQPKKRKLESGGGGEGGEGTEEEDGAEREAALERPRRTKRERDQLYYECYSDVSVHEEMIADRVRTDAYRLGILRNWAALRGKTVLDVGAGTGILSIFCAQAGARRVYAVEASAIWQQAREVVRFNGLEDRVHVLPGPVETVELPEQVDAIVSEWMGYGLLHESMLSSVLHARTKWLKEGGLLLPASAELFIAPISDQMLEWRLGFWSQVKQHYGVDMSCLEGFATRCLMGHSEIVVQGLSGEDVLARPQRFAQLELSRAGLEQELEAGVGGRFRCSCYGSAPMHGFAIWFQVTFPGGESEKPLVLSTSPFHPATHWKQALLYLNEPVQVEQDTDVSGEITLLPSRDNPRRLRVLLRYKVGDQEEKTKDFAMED

As to `Cc1ncsc1-c1ccc([C@H](C)NC(=O)[C@@H]2C[C@@H](O)CN2C(=O)[C@@H](NC(=O)CNC(=O)c2ccc(F)c(-c3ccc(N4C[C@@H](C)N(C)[C@@H](C)C4)c(NC(=O)c4c[nH]c(=O)cc4C(F)(F)F)c3)c2)C(C)(C)C)cc1` [MS67], the values for the remaining activity at 10 µM in assay [1] (read-out: Enzyme % Activity (relative to DMSO controls) / MS67 / 10 / Data 1:) and in assay [1] (read-out: Enzyme % Activity (relative to DMSO controls) / MS67 / 10 / Data 2:) were 136% and 145%, respectively. In addition, the inhibition at 10 µM in assay [2], in assay [3], in assay [4], in assay [5] and in assay [6] was less than 10% each time.
